These results are taken from patent US6242439A, “Azetidinone derivatives for the treatment of HCMV infections” (Boehringer Ingelheim (Canada) Ltd., priority 1998, dated 2001).

For one series, the target named is HCMV NO protease (Human cytomegalovirus, UniProt P16753). In words: HCMV NO Protease Assay (inhibition of cleavage of internally quenched fluorogenic peptide substrate). To be noted: 100 nM HCMV NO protease, 5 μM substrate, 2.5 h at 30°, pH 8. The class given is biochemical. How it is done: This particular assay determines the ability of a test compound to inhibit the activity of HCMV protease. More specifically, in the assay described herein, the inhibitory activity of the test compound is evaluated on the basis of its ability to interfere with the HCMV No protease cleavage of a fluorogenic peptide substrate which in turn is based on the maturation cleavage site of the enzyme.
Chain of HCMV NO protease (P16753 1-256): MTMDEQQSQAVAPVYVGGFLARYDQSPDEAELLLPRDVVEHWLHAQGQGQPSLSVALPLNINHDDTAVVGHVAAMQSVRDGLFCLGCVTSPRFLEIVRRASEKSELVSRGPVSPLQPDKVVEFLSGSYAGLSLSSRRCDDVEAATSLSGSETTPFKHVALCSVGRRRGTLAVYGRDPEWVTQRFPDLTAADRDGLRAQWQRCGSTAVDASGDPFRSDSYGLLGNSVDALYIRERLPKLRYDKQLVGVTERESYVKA
A. HCMV NO Protease Assay
Material & Methods: Fluorescence measurements were recorded on a Perkin-Elmer LS-50B spectrofluorimeter equipped with a plate reader accessory. UV measurements were recorded on a Thermomax® microplate reader from Molecular Devices Corporation, Menlo Park, Calif., USA.
HCMV NO protease was assayed with an internally quenched fluorogenic substrate based on the maturation cleavage site (Abz-[…](3-NO2)R--OH, kcat /KM =260 M^-1 s^-1). The fluorescence increase upon cleavage of the Ala-Ser amide bond was monitored using excitation λ=312 nm (slit 2.5 nm) and emission λ=415 nm (slit 5 nm). A protocol adaptable to a 96-well plate format was designed for the determination of IC50 values of inhibitors. […] After this period, enzymatic hydrolysis of the fluorogenic substrate in the absence of inhibitor led to about a 30% conversion. Quenching was not required before fluorescence measurement since the total scanning time by the plate reader accessory was brief relative to the duration of the reaction. The aqueous incubation buffer contained 50 mM tris(hydroxymethyl)aminomethane.HCl pH 8, 0.5M Na2 SO4, 50 mM NaCl, 0.1 mM EDTA, 1 mM tris(2-carboxyethyl)phosphine.HCl, 3% v/v DMSO and 0.05% w/v casein. The final concentrations of HCMV NO protease (expressed in terms of total monomer concentration) and substrate were 100 nM and 5 μM respectively. IC50 values were obtained through fitting of the inhibition curve to a competitive inhibition model using SAS NLIN procedure. The mode of inhibition was determined by measurements of the initial rates (in cuvettes) at various substrate concentrations in the buffer as described above. The IC50 values listed in the following tables the IC50 were obtained according to this assay.

Series [1] has as its system HCMV (strain AD169, ATCC VR-538). Put plainly: Plaque Reduction Assay (PRA). The series is classed as cell-based, human cytomegalovirus (HCMV). The note with it: Human betaherpesvirus 5, AD169, Hs68, 192 h, Hs-68 cells, approximately 50 PFU HCMV AD169, 8 days at 37°; read-out: EC50. As for the experimental part:
B. Plaque Reduction Assay (PRA)
Hs-68 cells (ATCC #CRL 1635) were seeded in 12-well plates at 83,000 cells/well in 1 mL of DMEM medium (Gibco Canada Inc.) supplemented with 10% fetal bovine serum (FBS, Gibco Canada Inc.). The plates were incubated for 3 days at 37° to allow the cells to reach 80-90% confluency prior to the assay.
The medium was removed from the cells by aspiration. The cells were then infected with approximately 50 PFU of HCMV (strain AD169, ATCC VR-538) in DMEM medium supplemented with 5% inactivated FBS (assay medium). (DMEM medium is commercially available and has been described by R. Dulbecco et al., Virology 1959, 8, 396.) The virus was allowed to adsorb to cells for 2 h at 37°. Following viral adsorption, the medium was removed from the wells by aspiration. The cells were then incubated with or without 1 mL of appropriate concentrations of test reagent in assay medium. Occasionally, test compounds were added 24 h post-infection. After 4 days of incubation at 37°, the medium was exchanged with fresh medium containing test compound and 4 days later the cells were fixed with 1% aqueous formaldehyde and stained with a 2% violet solution in 20% ethanol in water. Microscopic plaques were counted using a stereomicroscope. Drug effects were calculated as a percent reduction in the number of plaques in the presence of each drug concentration compared to the number observed in the absence of drug. Ganciclovir was used as a positive control in all experiments.
A general note: Plaque reduction counts the foci of infection that form in a cell layer.

Series [2] can be described thus: Cytotoxic effects, tetrazolium salt (MTT) metabolic assay. The class given is cell-based. To be noted: read-out: TC50 (the source's name). As for the experimental part: In conjunction with the appropriate starting materials and intermediates, the procedures of examples 1 to 11 can be used to prepare other compounds of formula 1. Examples of compounds thus prepared are listed in the following Tables I, II and III together with mass spectrum data for the compounds, and results from the assays A and B of example 12. Cytotoxic effects noted as TC50 in the following tables were determined according to the tetrazolium salt (MTT) metabolic assay, F. Denizot and F. Lang, J. Immun. Meth., 1986, 89, 271.

As for `O=C1C[C@H](Cc2ccccc2)N1C(=O)NCc1ccccc1` [Entry 116, 4(S)-Benzyl-2-oxoazetidine-1-carboxylic acid benzyl-amide], it took 8.9 µM to reach half-maximal inhibition at HCMV NO protease (IC50). In addition, the EC50 – broadly, the concentration that produces a half-maximal response – in series [1] is 53 µM. Moreover, the CC50 in series [2] was above 250 µM.
The like results for `CC[C@@H](NC(=O)N1C(=O)[C@@H](SC)[C@@H]1Cc1ccccc1)c1ccccc1` [Entry 209, 4(S)-Benzyl-3(S)-(methylthio)-2-oxoazetidine-1-carboxylic acid (1(R)-phenylpropyl)amide] were, in that order, 4.7 µM, 27 µM and above 250 µM.
Consider `CN(Cc1ccc([N+](=O)[O-])cc1)C(=O)N1C(=O)C[C@@H]1Cc1ccco1` [Entry 229], for which, on HCMV NO protease, the IC50 – broadly, the midpoint of a concentration-inhibition curve – stood at 3.1 µM. Also, in series [1], the concentration for a half-maximal effect (EC50) worked out at 143 µM. Also, the CC50 in series [2] was above 261 µM.
`COC(=O)c1ccc(CN(C)C(=O)N2C(=O)C[C@@H]2Cc2ccccc2)cc1` [Entry 131]: inhibition on HCMV NO protease was half-maximal at 2.5 µM (IC50). Moreover, the EC50 in series [1] came to 140 µM. Moreover, in series [2], the CC50 is above 250 µM.
Consider `O=C1C[C@H](Cc2ccc(I)cc2)N1C(=O)NCc1ccncc1` [Entry 211], for which, on HCMV NO protease, the IC50 worked out at 8.6 µM. Besides, the EC50 in series [1] was above 100 µM. The CC50 in series [2] was above 100 µM.
Regarding `CC[C@@H](C)[C@H]1CC(=O)N1C(=O)N[C@H](CC)c1ccccc1` [Entry 216], 4.4 µM corresponded to half-maximal inhibition against HCMV NO protease (IC50). Moreover, in series [1], the EC50 was determined as 110 µM. In addition, the CC50 in series [2] is above 250 µM.
The like results for `CN(Cc1ccc([N+](=O)[O-])cc1)C(=O)N1C(=O)C[C@@H]1Cc1ccccc1` [Entry 122] were, in that order, 1.5 µM, 105 µM and above 250 µM.
`CN(Cc1ccc(C(F)(F)F)cc1)C(=O)N1C(=O)C[C@@H]1Cc1nc2ccccc2s1` [Entry 219] yielded an IC50 at HCMV NO protease of 0.88 µM. Further, in series [1], the EC50 worked out at 110 µM. Also, the CC50 in series [2] was above 250 µM.
The like results for `Cc1ccc(CN(C)C(=O)N2C(=O)C[C@@H]2Cc2ccccc2)cc1` [Entry 129] were, in that order, 8.9 µM, 140 µM and above 200 µM.
`COc1ccc(NC(=O)N2C(=O)C[C@@H]2Cc2ccccc2)cc1` [Entry 102] registered an IC50 on HCMV NO protease of 3.9 µM. For the same molecule, in series [1], the EC50 came out at 215 µM. The CC50 in series [2] is above 250 µM.
On the same counts, the results for `CC[C@@H](NC(=O)N1C(=O)C[C@@H]1Cc1nnn(C)n1)c1ccccc1` [Entry 222] are 5 µM, 125 µM and above 148 µM.
At HCMV NO protease, `CCC(NC(=O)N1C(=O)C[C@@H]1Cc1ccccc1)c1ccncc1` (stereo partly drawn) [Entry 109] came in with an IC50 of 1.6 µM. Moreover, the EC50 in series [1] was determined as 130 µM. For the same molecule, the CC50 in series [2] was above 250 µM.
In the case of `Cc1ccc(NC(=O)N2C(=O)C[C@@H]2Cc2ccccc2)cc1` [Entry 103], 5.3 µM corresponded to half-maximal inhibition against HCMV NO protease (IC50). For the same molecule, the EC50 in series [1] is above 250 µM. In series [2], the CC50 was above 250 µM.
As for `C[C@@H]1C(=O)N(C(=O)N(C)Cc2ccccc2)[C@H]1Cc1ccccc1` [Entry 208], the IC50 at HCMV NO protease was found to be 4.2 µM. Also, in series [1], the EC50 came to 150 µM. For the same molecule, in series [2], the CC50 was above 250 µM.
On the same counts, the results for `CN(Cc1ccc(SC(F)(F)F)cc1)C(=O)N1C(=O)C[C@@H]1Cc1ccccc1` [Entry 137] are 6.9 µM, above 250 µM and above 250 µM.
The molecule `CCCC(NC(=O)N1C(=O)CC1Cc1ccccc1)c1ccccc1` (stereo not drawn) [Entry 121] came in with an IC50 against HCMV NO protease of 3.4 µM. The EC50 in series [1] was found to be 160 µM. In series [2], the CC50 was above 250 µM.
`CN(Cc1ccc([N+](=O)[O-])cc1)C(=O)N1C(=O)C[C@@H]1Cc1cccs1` [Entry 226] had an IC50 against HCMV NO protease of 1.3 µM. Moreover, the EC50 in series [1] was 70 µM. For the same molecule, the CC50 in series [2] was above 79 µM.
For `CC[C@@H](NC(=O)N1C(=O)C[C@@H]1C(C)C)c1ccccc1` [Entry 213], the IC50 on HCMV NO protease is 5.9 µM. Moreover, the EC50 in series [1] stood at 210 µM. Moreover, the CC50 in series [2] was above 250 µM.
